# Values joined by “and” are separate entries in the source; they are usually repeats but may differ in a detail not shown here. Equal entries are not always repeated.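 Growth conditions: 96-well plates. Treatment: test compound, 48 hours, 5 concentrations. Analysis: linear interpolation between bracketing concentrations; unreached endpoints set to highest concentration. GI50 is the concentration that inhibits growth by half. At the TGI there is no net growth.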
# Experiments:
# Assay in all cases: NCI-60 cell line screen, 48 h
# MDA-MB-468 breast = tested on: MDA-MB-468 breast
# 786-0 renal = tested on: 786-0 renal
# A498 renal = tested on: A498 renal
# A549 NSCLC = tested on: A549 NSCLC
# ACHN renal = tested on: ACHN renal
# BT-549 breast = tested on: BT-549 breast
# CAKI-1 renal = tested on: CAKI-1 renal
# CCRF-CEM leukemia = tested on: CCRF-CEM leukemia
# COLO 205 colon = tested on: COLO 205 colon
# DU-145 prostate = tested on: DU-145 prostate
# EKVX NSCLC = tested on: EKVX NSCLC
# HCC-2998 colon = tested on: HCC-2998 colon
# HCT-116 colon = tested on: HCT-116 colon
# HCT-15 colon = tested on: HCT-15 colon
# HL-60(TB) leukemia = tested on: HL-60(TB) leukemia
# HOP-62 NSCLC = tested on: HOP-62 NSCLC
# HOP-92 NSCLC = tested on: HOP-92 NSCLC
# HS 578T breast = tested on: HS 578T breast
# HT29 colon = tested on: HT29 colon
# IGROV1 ovarian = tested on: IGROV1 ovarian
# K-562 leukemia = tested on: K-562 leukemia
# KM12 colon = tested on: KM12 colon
# LOX IMVI melanoma = tested on: LOX IMVI melanoma
# M14 melanoma = tested on: M14 melanoma
# MALME-3M melanoma = tested on: MALME-3M melanoma
# MCF7 breast = tested on: MCF7 breast
# MDA-MB-231 breast = tested on: MDA-MB-231 breast
# MDA-MB-435 = tested on: MDA-MB-435
# MOLT-4 leukemia = tested on: MOLT-4 leukemia
# NCI-H226 lung = tested on: NCI-H226 lung
# NCI-H23 lung = tested on: NCI-H23 lung
# NCI-H460 lung = tested on: NCI-H460 lung
# NCI-H522 lung = tested on: NCI-H522 lung
# NCI/ADR-RES ovarian = tested on: NCI/ADR-RES ovarian
# OVCAR-3 ovarian = tested on: OVCAR-3 ovarian
# OVCAR-4 ovarian = tested on: OVCAR-4 ovarian
# OVCAR-5 ovarian = tested on: OVCAR-5 ovarian
# OVCAR-8 ovarian = tested on: OVCAR-8 ovarian
# PC-3 prostate = tested on: PC-3 prostate
# RPMI-8226 leukemia = tested on: RPMI-8226 leukemia
# RXF 393 renal = tested on: RXF 393 renal
# SF-268 CNS = tested on: SF-268 CNS
# SF-295 CNS = tested on: SF-295 CNS
# SF-539 CNS = tested on: SF-539 CNS
# SK-MEL-2 melanoma = tested on: SK-MEL-2 melanoma
# SK-MEL-28 melanoma = tested on: SK-MEL-28 melanoma
# SK-MEL-5 melanoma = tested on: SK-MEL-5 melanoma
# SK-OV-3 ovarian = tested on: SK-OV-3 ovarian
# SN12C renal = tested on: SN12C renal
# SNB-19 CNS = tested on: SNB-19 CNS
# SNB-75 CNS = tested on: SNB-75 CNS
# SR leukemia = tested on: SR leukemia
# SW-620 colon = tested on: SW-620 colon
# T-47D breast = tested on: T-47D breast
# TK-10 renal = tested on: TK-10 renal
# U251 CNS = tested on: U251 CNS
# UACC-257 melanoma = tested on: UACC-257 melanoma
# UACC-62 melanoma = tested on: UACC-62 melanoma
# UO-31 renal = tested on: UO-31 renal
compound,measurement,setting,value
Nc1cc(-c2ccc(Cl)cc2)nn1-c1nnc(/C=C/c2ccco2)c(=O)[nH]1,GI50,MDA-MB-468 breast,3.08 µM
same,TGI,MDA-MB-468 breast,22.2 µM
COc1ccc(-n2nc(C)c3c(Nc4ccc(NC(=O)Nc5ccc(Cl)c(C(F)(F)F)c5)cc4)ncnc32)cc1,GI50,MDA-MB-468 breast,1.88 µM
same,TGI,MDA-MB-468 breast,4.62 µM
Cc1ccc(-n2nc(C(C)(C)C)cc2NC(=O)NCc2cc(F)ccc2Oc2ccc3c(cnn3CCO)c2)cc1,GI50,MDA-MB-468 breast,6.55 µM and 3.58 µM
same,TGI,MDA-MB-468 breast,> 65.9 µM
COc1cccc(COc2cc(-n3cnc4ccccc43)sc2C(N)=O)c1,GI50,MDA-MB-468 breast,0.717 µM
same,TGI,MDA-MB-468 breast,6.17 µM
COc1cc2nc(-c3ccc(C(F)(F)F)cc3)cc(OCCCN3CCCC3)c2cc1OC,GI50,MDA-MB-468 breast,1.09 µM
same,TGI,MDA-MB-468 breast,3.72 µM
c1cnn2ncc(-c3ccnc(Nc4ccc5c(c4)OCCO5)n3)c2c1,GI50,MDA-MB-468 breast,0.0594 µM
same,TGI,MDA-MB-468 breast,0.18 µM
CCN(CC)c1ccc(/C=C/C2=[N+](C)c3ccccc3C2(C)C)c(C)c1,GI50,MDA-MB-468 breast,< 0.019 µM
same,TGI,MDA-MB-468 breast,0.181 µM
O=C1/C(=C/c2ccc([N+](=O)[O-])cc2)COc2ccc(O)cc21,GI50,MDA-MB-468 breast,2.23 µM
same,TGI,MDA-MB-468 breast,7.6 µM
COc1ccc(C2=C(N3CCc4ccccc43)C(=O)NC2=O)cc1,GI50,MDA-MB-468 breast,18 µM
same,TGI,MDA-MB-468 breast,> 25 µM
CCN(CC)CCOc1ccc(C(=C(C)c2ccc(OC)cc2)c2ccc(OCCN(CC)CC)cc2)cc1,GI50,MDA-MB-468 breast,0.83 µM
same,TGI,MDA-MB-468 breast,1.86 µM
COc1ccc(Nc2nccc(N3CCN(c4c5ccc(Cl)cc5nc5ccc(OC)cc45)CC3)n2)cc1,GI50,MDA-MB-468 breast,2.69 µM
same,TGI,MDA-MB-468 breast,23 µM
COc1cc2oc(-c3cccc(C(=O)Nc4ccc(Cl)cc4)c3)cc(=O)c2c(OCCNC(=O)[C@H](CO)NC(=O)OC(C)(C)C)c1OC,GI50,786-0 renal,19.7 µM
same,TGI,786-0 renal,> 100 µM
same,GI50,A498 renal,27.2 µM
same,TGI,A498 renal,77.9 µM
same,GI50,A549 NSCLC,10.5 µM
same,TGI,A549 NSCLC,> 100 µM
same,GI50,ACHN renal,19.5 µM
same,TGI,ACHN renal,> 100 µM
same,GI50,BT-549 breast,3.06 µM
same,TGI,BT-549 breast,19.9 µM
same,GI50,CAKI-1 renal,5.8 µM
same,TGI,CAKI-1 renal,> 100 µM
same,GI50,CCRF-CEM leukemia,5.54 µM
same,TGI,CCRF-CEM leukemia,> 100 µM
same,GI50,COLO 205 colon,7.16 µM
same,TGI,COLO 205 colon,71.6 µM
same,GI50,DU-145 prostate,17.8 µM
same,TGI,DU-145 prostate,> 100 µM
same,GI50,EKVX NSCLC,9.89 µM
same,TGI,EKVX NSCLC,> 100 µM
same,GI50,HCC-2998 colon,15.5 µM
same,TGI,HCC-2998 colon,74 µM
same,GI50,HCT-116 colon,6.03 µM
same,TGI,HCT-116 colon,> 100 µM
same,GI50,HCT-15 colon,7.43 µM
same,TGI,HCT-15 colon,> 100 µM
same,GI50,HL-60(TB) leukemia,5.41 µM
same,TGI,HL-60(TB) leukemia,22.1 µM
same,GI50,HOP-62 NSCLC,16.1 µM
same,TGI,HOP-62 NSCLC,> 100 µM
same,GI50,HOP-92 NSCLC,4.24 µM
same,TGI,HOP-92 NSCLC,> 100 µM
same,GI50,HS 578T breast,8.01 µM
same,TGI,HS 578T breast,94.6 µM
same,GI50,HT29 colon,6.92 µM
same,TGI,HT29 colon,57.4 µM
same,GI50,IGROV1 ovarian,10.7 µM
same,TGI,IGROV1 ovarian,> 100 µM
same,GI50,K-562 leukemia,4.23 µM
same,TGI,K-562 leukemia,> 100 µM
same,GI50,KM12 colon,28.7 µM
same,TGI,KM12 colon,> 100 µM
same,GI50,LOX IMVI melanoma,3.82 µM
same,TGI,LOX IMVI melanoma,20.7 µM
same,GI50,M14 melanoma,8.53 µM
same,TGI,M14 melanoma,55.6 µM
same,GI50,MALME-3M melanoma,11 µM
same,TGI,MALME-3M melanoma,51.5 µM
same,GI50,MCF7 breast,10.1 µM
same,TGI,MCF7 breast,> 100 µM
same,GI50,MDA-MB-231 breast,4.7 µM
same,TGI,MDA-MB-231 breast,33.9 µM
same,GI50,MDA-MB-435,12.4 µM
same,TGI,MDA-MB-435,42.6 µM
same,GI50,MDA-MB-468 breast,13.9 µM
same,TGI,MDA-MB-468 breast,35 µM
same,GI50,MOLT-4 leukemia,3.2 µM
same,TGI,MOLT-4 leukemia,21.8 µM
same,GI50,NCI-H226 lung,13.8 µM
same,TGI,NCI-H226 lung,> 100 µM
same,GI50,NCI-H23 lung,14.9 µM
same,TGI,NCI-H23 lung,> 100 µM
same,GI50,NCI-H460 lung,6.48 µM
same,TGI,NCI-H460 lung,> 100 µM
same,GI50,NCI-H522 lung,5.18 µM
same,TGI,NCI-H522 lung,> 100 µM
same,GI50,NCI/ADR-RES ovarian,51.4 µM
same,TGI,NCI/ADR-RES ovarian,> 100 µM
same,GI50,OVCAR-3 ovarian,10.8 µM
same,TGI,OVCAR-3 ovarian,> 100 µM
same,GI50,OVCAR-4 ovarian,9.86 µM
same,TGI,OVCAR-4 ovarian,> 100 µM
same,GI50,OVCAR-5 ovarian,8.01 µM
same,TGI,OVCAR-5 ovarian,> 100 µM
same,GI50,OVCAR-8 ovarian,5.78 µM
same,TGI,OVCAR-8 ovarian,> 100 µM
same,GI50,PC-3 prostate,6.82 µM
same,TGI,PC-3 prostate,> 100 µM
same,GI50,RPMI-8226 leukemia,2.85 µM
same,TGI,RPMI-8226 leukemia,> 100 µM
same,GI50,RXF 393 renal,4.2 µM
same,TGI,RXF 393 renal,22 µM
same,GI50,SF-268 CNS,21.5 µM
same,TGI,SF-268 CNS,> 100 µM
same,GI50,SF-295 CNS,12.4 µM
same,TGI,SF-295 CNS,53.2 µM
same,GI50,SF-539 CNS,12.1 µM
same,TGI,SF-539 CNS,45 µM
same,GI50,SK-MEL-2 melanoma,15.4 µM
same,TGI,SK-MEL-2 melanoma,> 100 µM
same,GI50,SK-MEL-28 melanoma,9.5 µM
same,TGI,SK-MEL-28 melanoma,28.2 µM
same,GI50,SK-MEL-5 melanoma,5.48 µM
same,TGI,SK-MEL-5 melanoma,19.6 µM
same,GI50,SK-OV-3 ovarian,79.2 µM
same,TGI,SK-OV-3 ovarian,> 100 µM
same,GI50,SN12C renal,8.47 µM
same,TGI,SN12C renal,> 100 µM
same,GI50,SNB-19 CNS,28.8 µM
same,TGI,SNB-19 CNS,> 100 µM
same,GI50,SNB-75 CNS,8.45 µM
same,TGI,SNB-75 CNS,> 100 µM
same,GI50,SR leukemia,3.01 µM
same,TGI,SR leukemia,18.2 µM
same,GI50,SW-620 colon,30.1 µM
same,TGI,SW-620 colon,> 100 µM
same,GI50,T-47D breast,5.63 µM
same,TGI,T-47D breast,> 100 µM
same,GI50,TK-10 renal,19.9 µM
same,TGI,TK-10 renal,> 100 µM
same,GI50,U251 CNS,17.8 µM
same,TGI,U251 CNS,> 100 µM
same,GI50,UACC-257 melanoma,12.6 µM
same,TGI,UACC-257 melanoma,27.8 µM
same,GI50,UACC-62 melanoma,20.3 µM
same,TGI,UACC-62 melanoma,> 100 µM
same,GI50,UO-31 renal,19.9 µM
same,TGI,UO-31 renal,> 100 µM

# Source: PubChem BioAssay (NCI)
